Assay results taken from ChEMBL document CHEMBL1201862, “PubChem BioAssay data set” (2004).
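Cultured in 96-well plates, cells were exposed to test compound for 48 hours across five concentrations. GI50 = concentration required for 50% inhibition of growth.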 Calls of active or inactive are those of the source. Rule as the data show it: active = GI50 up to about 1.1 µM and inactive = higher.

What was measured:
Experiment in all cases: NCI tumour cell line growth inhibition, 48 h
COLO 205 = tested on: COLO 205
UO-31 = tested on: UO-31
MOLT-4 = tested on: MOLT-4
OVCAR-3 = tested on: OVCAR-3
SF-295 = tested on: SF-295
CCRF-CEM = tested on: CCRF-CEM
OVCAR-8 = tested on: OVCAR-8
NCI-H460 = tested on: NCI-H460
A549 = tested on: A549
SK-MEL-2 = tested on: SK-MEL-2
UACC-62 = tested on: UACC-62
SNB-19 = tested on: SNB-19
RXF 393 = tested on: RXF 393
LOX IMVI = tested on: LOX IMVI
NCI/ADR-RES = tested on: NCI/ADR-RES
MDA-MB-435 = tested on: MDA-MB-435
SK-MEL-5 = tested on: SK-MEL-5
MDA-N = tested on: MDA-N
HCC 2998 = tested on: HCC 2998
HCT-116 = tested on: HCT-116
OVCAR-5 = tested on: OVCAR-5
MDA-MB-231 = tested on: MDA-MB-231
CAKI-1 = tested on: CAKI-1
SN12C = tested on: SN12C
UACC-257 = tested on: UACC-257
BT-549 = tested on: BT-549
SK-OV-3 = tested on: SK-OV-3
DU-145 = tested on: DU-145
PC-3 = tested on: PC-3
IGROV-1 = tested on: IGROV-1
KM12 = tested on: KM12
K562 = tested on: K562
SF-268 = tested on: SF-268
SW-620 = tested on: SW-620
EKVX = tested on: EKVX
A498 = tested on: A498
RPMI-8226 = tested on: RPMI-8226
786-0 = tested on: 786-0
HT-29 = tested on: HT-29
SNB-75 = tested on: SNB-75
NCI-H522 = tested on: NCI-H522
OVCAR-4 = tested on: OVCAR-4
M14 = tested on: M14
Malme-3M = tested on: Malme-3M
SK-MEL-28 = tested on: SK-MEL-28
HCT-15 = tested on: HCT-15
NCI-H226 = tested on: NCI-H226
U-251 = tested on: U-251
ACHN = tested on: ACHN
Hs-578T = tested on: Hs-578T
MCF7 = tested on: MCF7
TK-10 = tested on: TK-10
SR = tested on: SR
T47D = tested on: T47D
HOP-62 = tested on: HOP-62
SF-539 = tested on: SF-539
HL-60 = tested on: HL-60
NCI-H23 = tested on: NCI-H23
HOP-92 = tested on: HOP-92

With `O=C1c2ccccc2-n2nnnc2C2CSCN12` (stereo not drawn) the GI50 (COLO 205) was > 100 µM (inactive), the GI50 (UO-31) was > 100 µM (inactive) and the GI50 (MOLT-4) was > 100 µM (inactive). The GI50 (OVCAR-3) was > 100 µM (inactive), the GI50 (SF-295) was > 100 µM (inactive) and the GI50 (CCRF-CEM) was > 100 µM (inactive). For the same compound, the GI50 (OVCAR-8) was > 100 µM (inactive), the GI50 (NCI-H460) was > 100 µM (inactive) and the GI50 (A549) was > 100 µM (inactive). The GI50 (SK-MEL-2) was > 100 µM (inactive), the GI50 (UACC-62) was > 100 µM (inactive) and the GI50 (SNB-19) was > 100 µM (inactive). The GI50 (RXF 393) was > 100 µM (inactive), the GI50 (LOX IMVI) was > 100 µM (inactive) and the GI50 (NCI/ADR-RES) was > 100 µM (inactive). The GI50 (MDA-MB-435) was > 100 µM (inactive), the GI50 (SK-MEL-5) was > 100 µM (inactive) and the GI50 (MDA-N) was > 100 µM (inactive). The GI50 (HCC 2998) was > 100 µM (inactive), the GI50 (HCT-116) was > 100 µM (inactive) and the GI50 (OVCAR-5) was > 100 µM (inactive). The GI50 (MDA-MB-231) was > 100 µM (inactive), the GI50 (CAKI-1) was > 100 µM (inactive) and the GI50 (SN12C) was > 100 µM (inactive). For the same compound, the GI50 (UACC-257) was > 100 µM (inactive), the GI50 (BT-549) was > 100 µM (inactive) and the GI50 (SK-OV-3) was > 100 µM (inactive). The GI50 (DU-145) was > 100 µM (inactive), the GI50 (PC-3) was > 100 µM (inactive) and the GI50 (IGROV-1) was > 100 µM (inactive). For the same compound, the GI50 (KM12) was > 100 µM (inactive), the GI50 (K562) was 56.2 µM (inactive) and the GI50 (SF-268) was > 100 µM (inactive). For the same compound, the GI50 (SW-620) was > 100 µM (inactive), the GI50 (EKVX) was > 100 µM (inactive) and the GI50 (A498) was > 100 µM (inactive). The GI50 (RPMI-8226) was > 100 µM (inactive), the GI50 (786-0) was > 100 µM (inactive) and the GI50 (HT-29) was > 100 µM (inactive). The GI50 (SNB-75) was > 100 µM (inactive), the GI50 (NCI-H522) was > 100 µM (inactive) and the GI50 (OVCAR-4) was > 100 µM (inactive). The GI50 (M14) was > 100 µM (inactive), the GI50 (Malme-3M) was > 100 µM (inactive) and the GI50 (SK-MEL-28) was > 100 µM (inactive). For the same compound, the GI50 (HCT-15) was greater than 100 µM, the GI50 (NCI-H226) was > 100 µM (inactive) and the GI50 (U-251) was > 100 µM (inactive). The GI50 (ACHN) was > 100 µM (inactive), the GI50 (Hs-578T) was > 100 µM (inactive) and the GI50 (MCF7) was > 100 µM (inactive). For the same compound, the GI50 (TK-10) was > 100 µM (inactive), the GI50 (SR) was > 100 µM (inactive) and the GI50 (T47D) was > 100 µM (inactive). For the same compound, the GI50 (HOP-62) was > 100 µM (inactive).

`O=[N+]([O-])c1ccc(Sc2c3ccccc3nc3ccccc23)cn1` was tested, and the GI50 (SF-539) was 8.77 µM (inactive), the GI50 (COLO 205) was 3.36 µM (inactive) and the GI50 (UO-31) was 15.3 µM (inactive). The GI50 (MOLT-4) was 2.19 µM (inactive), the GI50 (OVCAR-3) was 8.11 µM (inactive) and the GI50 (SF-295) was > 100 µM (inactive). For the same compound, the GI50 (CCRF-CEM) was 2.39 µM (inactive), the GI50 (OVCAR-8) was 15.3 µM (inactive) and the GI50 (NCI-H460) was > 72.9 µM (inactive). For the same compound, the GI50 (A549) was > 100 µM (inactive), the GI50 (SK-MEL-2) was 25.4 µM (inactive) and the GI50 (UACC-62) was 18.7 µM (inactive). For the same compound, the GI50 (SNB-19) was 24.5 µM (inactive), the GI50 (RXF 393) was 31.8 µM (inactive) and the GI50 (LOX IMVI) was 13 µM (inactive). For the same compound, the GI50 (NCI/ADR-RES) was 39.5 µM (inactive), the GI50 (HL-60) was 10.8 µM (inactive) and the GI50 (MDA-MB-435) was 16.7 µM (inactive). For the same compound, the GI50 (SK-MEL-5) was 35.1 µM (inactive), the GI50 (MDA-N) was 14.3 µM (inactive) and the GI50 (HCC 2998) was 45.6 µM (inactive). The GI50 (HCT-116) was 3.6 µM (inactive), the GI50 (OVCAR-5) was > 62.4 µM (inactive) and the GI50 (MDA-MB-231) was 18 µM (inactive). For the same compound, the GI50 (CAKI-1) was 5.61 µM (inactive), the GI50 (NCI-H23) was 15.9 µM (inactive) and the GI50 (SN12C) was 18.7 µM (inactive). The GI50 (UACC-257) was 15.5 µM (inactive), the GI50 (BT-549) was 14.6 µM (inactive) and the GI50 (SK-OV-3) was > 53.8 µM (inactive). The GI50 (DU-145) was 13.5 µM (inactive), the GI50 (PC-3) was 15.5 µM (inactive) and the GI50 (HOP-92) was 4.28 µM (inactive). For the same compound, the GI50 (IGROV-1) was 32.4 µM (inactive), the GI50 (KM12) was 33.1 µM (inactive) and the GI50 (K562) was 2.49 µM (inactive). For the same compound, the GI50 (SF-268) was 20.8 µM (inactive), the GI50 (SW-620) was 3.88 µM (inactive) and the GI50 (EKVX) was > 57.4 µM (inactive). For the same compound, the GI50 (A498) was > 100 µM (inactive), the GI50 (786-0) was 2.59 µM (inactive) and the GI50 (HT-29) was 9.02 µM (inactive). The GI50 (SNB-75) was 24.9 µM (inactive), the GI50 (NCI-H522) was 4.08 µM (inactive) and the GI50 (OVCAR-4) was 21.2 µM (inactive). For the same compound, the GI50 (M14) was 8.97 µM (inactive), the GI50 (Malme-3M) was 3.24 µM (inactive) and the GI50 (SK-MEL-28) was 24.7 µM (inactive). The GI50 (HCT-15) was 9.55 µM, the GI50 (NCI-H226) was > 100 µM (inactive) and the GI50 (U-251) was > 44.2 µM (inactive). The GI50 (ACHN) was 12.2 µM (inactive), the GI50 (Hs-578T) was 18 µM (inactive) and the GI50 (MCF7) was 4.48 µM (inactive). The GI50 (TK-10) was 10.1 µM (inactive), the GI50 (SR) was 3.12 µM (inactive) and the GI50 (T47D) was 4.92 µM (inactive). The GI50 (HOP-62) was > 42.6 µM (inactive).
